compound: CC(C)C[C@@H](C(=O)N[C@H](C(=O)OC1CCCC1)c1ccccc1)[C@H](O)C(=O)NO [Tosedostat] + Cc1nc(NC(=O)N2CCC[C@H]2C(N)=O)sc1-c1ccnc(C(C)(C)C(F)(F)F)c1 [Alpelisib] (partner 2 µM); test: relative viability (nuclei count vs DMSO), 5 days (fraction); higher = more cells survive; settings: first compound 0.02 µM
Method in brief: (§1)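 Values are medians from duplicate plates. Each reflects relative viability, defined as the nuclei count of treated wells over that of vehicle wells. Lung cancer cell lines in 1536-well plates were pin-tool dosed one day after seeding with one drug alone or with a fixed anchor-drug dose plus five library-drug doses (not always all listed) in √10 steps, then fixed, stained and imaged at 4× after 5 days.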

Cell Line	relative viability
NCI-H1651	0.832
NCI-H1993	0.61
NCI-H2228	0.971
HCC-15	0.848
NCI-H1793	0.691
EKVX	0.868
LC-2-ad	0.932
NCI-H1666	0.99
NCI-H1944	0.929
NCI-H2085	0.904
NCI-H358	0.881
PC-3 [JPC-3]	1.03
LOU-NH91	0.695

same assay, conditions: first compound 0.06325 µM

Cell Line	relative viability
NCI-H2126	0.744
A-427	1.09
NCI-H650	1.15
RERF-LC-KJ	0.955
NCI-H1915	1.05
NCI-H661	0.627
NCI-H441	0.582
NCI-H1975	0.602
NCI-H1395	0.922
201T	1.08
NCI-H2023	0.558
HCC-827	0.934
NCI-H322M	0.902
NCI-H1437	1.05
PC-14	0.903
CAL-12T	1.14
NCI-H1734	0.647

Cell Line	relative viability
EPLC-272H	0.999
NCI-H3122	0.809
NCI-H2009	1.14
NCI-H520	0.807
NCI-H1651	0.92
NCI-H1993	0.688
NCI-H2228	0.748
HCC-15	0.934
NCI-H1793	0.851
EKVX	0.86
LC-2-ad	0.885
NCI-H1666	0.841
NCI-H1944	0.811
NCI-H2085	1.02
NCI-H358	0.824
PC-3 [JPC-3]	1.03
LOU-NH91	0.704

same assay, conditions: first compound 0.2 µM

Cell Line	relative viability
NCI-H2126	0.757
A-427	1.12
NCI-H650	1.14
RERF-LC-KJ	0.777
NCI-H1915	1.04
NCI-H661	0.428
NCI-H441	0.597
NCI-H1975	0.537
NCI-H1395	0.965
201T	1.07
NCI-H2023	0.675
HCC-827	1.02
NCI-H322M	0.537
NCI-H1437	0.969
PC-14	0.956
CAL-12T	1.3
NCI-H1734	0.742

Cell Line	relative viability
EPLC-272H	0.719
NCI-H3122	0.844
NCI-H2009	1.12
NCI-H520	0.929
NCI-H1651	0.996
NCI-H1993	0.843
NCI-H2228	0.743
HCC-15	0.863
NCI-H1793	0.567
EKVX	0.835
LC-2-ad	0.852
NCI-H1666	1.06
NCI-H1944	0.817
NCI-H2085	1.06
NCI-H358	0.688
PC-3 [JPC-3]	1.06
LOU-NH91	0.741

same assay, conditions: first compound 0.6325 µM

Cell Line	relative viability
NCI-H2126	0.774
A-427	1.12
NCI-H650	0.97
RERF-LC-KJ	0.742
NCI-H1915	1.07
NCI-H661	0.594
NCI-H441	0.501
NCI-H1975	0.473
NCI-H1395	0.791
201T	1.21
NCI-H2023	0.421
HCC-827	0.842
NCI-H322M	0.755
NCI-H1437	0.828
PC-14	0.899
CAL-12T	0.988
NCI-H1734	0.593

Cell Line	relative viability
EPLC-272H	0.747
NCI-H3122	0.774
NCI-H2009	1.05
NCI-H520	1.12
NCI-H1651	0.995
NCI-H1993	0.561
NCI-H2228	0.677
HCC-15	0.808
NCI-H1793	0.649
EKVX	0.838
LC-2-ad	0.889
NCI-H1666	0.995
NCI-H1944	0.742
NCI-H2085	0.936
NCI-H358	0.538
PC-3 [JPC-3]	0.924
LOU-NH91	0.706

same assay, conditions: first compound 2 µM

Cell Line	relative viability
NCI-H2126	0.661
A-427	0.983
NCI-H650	0.683
RERF-LC-KJ	0.57
NCI-H1915	0.907
NCI-H661	0.531
NCI-H441	0.534
NCI-H1975	0.495
NCI-H1395	0.876
201T	1.15
NCI-H2023	0.483
HCC-827	0.875
NCI-H322M	0.53
NCI-H1437	0.506
PC-14	0.786
CAL-12T	0.872
NCI-H1734	0.646

Cell Line	relative viability
EPLC-272H	0.505
NCI-H3122	0.997
NCI-H2009	0.955
NCI-H520	0.946
NCI-H1651	0.924
NCI-H1993	0.588
NCI-H2228	0.661
HCC-15	0.651
NCI-H1793	0.673
EKVX	0.87
LC-2-ad	0.74
NCI-H1666	0.951
NCI-H1944	0.818
NCI-H2085	0.887
NCI-H358	0.442
PC-3 [JPC-3]	0.727
LOU-NH91	0.674

compound: CC1=NN=C(O1)C2=NN=C(C=C2)N3CCC(CC3)OC4=C(C=CC(=C4)F)Cl + CC(=O)Nc1cccc(-n2c(=O)n(C3CC3)c(=O)c3c(Nc4ccc(I)cc4F)n(C)c(=O)c(C)c32)c1 [Trametinib] (partner 0.02 µM); test: as above; settings: first compound 0.253 µM
Method in brief: as §1

Cell Line	relative viability
NCI-H2126	0.528
A-427	0.818
NCI-H650	0.933
RERF-LC-KJ	0.665
NCI-H1915	0.293
NCI-H661	0.489
NCI-H441	0.343
NCI-H1975	0.171
NCI-H1395	0.963
201T	0.414
NCI-H2023	0.36
HCC-827	0.42
NCI-H322M	0.563
NCI-H1437	0.391
PC-14	0.732
CAL-12T	0.337
NCI-H1734	0.642

Cell Line	relative viability
EPLC-272H	0.267
NCI-H3122	0.173
NCI-H2009	0.257
NCI-H520	0.656
NCI-H1651	0.651
NCI-H1993	0.453
NCI-H2228	0.373
HCC-15	0.404
NCI-H1793	0.434
EKVX	0.26
LC-2-ad	0.369
NCI-H1666	0.764
NCI-H1944	0.339
NCI-H2085	0.326
NCI-H358	0.131
PC-3 [JPC-3]	0.634

same assay, conditions: first compound 0.8 µM

Cell Line	relative viability
NCI-H2126	0.532
A-427	0.711
NCI-H650	0.874
RERF-LC-KJ	0.593
NCI-H1915	0.267
NCI-H661	0.472
NCI-H441	0.327
NCI-H1975	0.307
NCI-H1395	0.978
201T	0.425
NCI-H2023	0.419
HCC-827	0.343
NCI-H322M	0.487
NCI-H1437	0.367
PC-14	0.658
CAL-12T	0.313
NCI-H1734	0.652

Cell Line	relative viability
EPLC-272H	0.247
NCI-H3122	0.224
NCI-H2009	0.23
NCI-H520	0.578
NCI-H1651	0.621
NCI-H1993	0.523
NCI-H2228	0.41
HCC-15	0.399
NCI-H1793	0.511
EKVX	0.254
LC-2-ad	0.35
NCI-H1666	0.761
NCI-H1944	0.324
NCI-H2085	0.514
NCI-H358	0.137
PC-3 [JPC-3]	0.684
LOU-NH91	0.722

same assay, conditions: first compound 2.53 µM

Cell Line	relative viability
NCI-H2126	0.504
A-427	0.869
NCI-H650	0.934
RERF-LC-KJ	0.595
NCI-H1915	0.277
NCI-H661	0.429
NCI-H441	0.462
NCI-H1975	0.373
NCI-H1395	0.89
201T	0.405
NCI-H2023	0.388
HCC-827	0.431
NCI-H322M	0.477
NCI-H1437	0.491
PC-14	0.582
CAL-12T	0.255
NCI-H1734	0.663

Cell Line	relative viability
EPLC-272H	0.291
NCI-H3122	0.224
NCI-H2009	0.233
NCI-H520	0.648
NCI-H1651	0.609
NCI-H1993	0.655
NCI-H2228	0.548
HCC-15	0.376
NCI-H1793	0.509
EKVX	0.26
LC-2-ad	0.349
NCI-H1666	0.834
NCI-H1944	0.37
NCI-H2085	0.423
NCI-H358	0.146
PC-3 [JPC-3]	0.668
LOU-NH91	0.744

same assay, conditions: first compound 8 µM

Cell Line	relative viability
NCI-H2126	0.486
A-427	0.825
NCI-H650	0.862
RERF-LC-KJ	0.612
NCI-H1915	0.239
NCI-H661	0.379
NCI-H441	0.409
NCI-H1975	0.385
NCI-H1395	1
201T	0.384
NCI-H2023	0.301
HCC-827	0.399
NCI-H322M	0.52
NCI-H1437	0.375
PC-14	0.428
CAL-12T	0.217
NCI-H1734	0.597

Cell Line	relative viability
EPLC-272H	0.309
NCI-H3122	0.232
NCI-H2009	0.174
NCI-H520	0.475
NCI-H1651	0.576
NCI-H1993	0.593
NCI-H2228	0.612
HCC-15	0.385
NCI-H1793	0.403
EKVX	0.286
LC-2-ad	0.328
NCI-H1666	0.834
NCI-H1944	0.342
NCI-H2085	0.363
NCI-H358	0.124
PC-3 [JPC-3]	0.748
LOU-NH91	0.77

Source: the supplement of paper PMC10307832
